Data reported in article PMC12383145, “Fluorescent Peptides Internalize HeLa Cells and Kill Multidrug-Resistant Clinical Bacterial Isolates” (Antibiotics, 2025).
Residues, ends and D or L forms follow the SMILES beside them. *: point of attachment. RhodamineB = CCN(CC)c1ccc2c(-c3ccccc3C(=O)*)c3ccc(=[N+](CC)CC)cc-3oc2c1

Tests used:
Format in all cases: cell-based
[1] = test system: E. coli ATCC 25922; settings: ATCC 25922, 24 h
[2] = test system: E. faecalis ATCC 29212; settings: ATCC 29212, 24 h
[3] = test system: K. pneumoniae ATCC 700603; settings: ATCC 700603, 24 h
[4] = test system: P. aeruginosa ATCC 27853; settings: ATCC 27853, 24 h
[5] = test system: S. aureus ATCC 25923; settings: ATCC 25923, 24 h
[6] = test system: MCF-7 cells; experiment: MTT cytotoxicity assay in MCF-7 cells; settings: 200 µg/mL, 2 h
Method: An MTT assay was performed in MCF-7 cells with FAM-1 (FAM-RWQWRWQWR) and RhB-1 (RhB-RWQWRWQWR) peptides following a 2 h treatment.

[7] = test system: HeLa cells; experiment: Fluorescence confocal microscopy, colocalization analysis (ImageJ JaCoP); settings: 2 h at IC50, colocalization with SMA antibody
Method: The possible cellular distribution of the peptides was determined by colocalization analysis of the Rhodamine B fluorescent signal, with fluorophores used to stain the nucleus (Hoechst 33342) and cytoplasm components (SMA antibody). ImageJ 1.54f analysis software and the JaCoP plugin were used to analyze signal colocalization.
HeLa cells (>70% confluence) were seeded on sterile round coverslips in 24-well plates with DMEM + 5% FBS and incubated at 37 °C, 5% CO2 for 24 h. After adhesion, the medium was replaced, and cells were treated with fluorescent peptides at their IC50 for 2 h. Then, cells were washed with PBS under constant stirring (3 × 10 min). Cellular fixation was performed using a solution containing 2% paraformaldehyde and 1% sucrose 100 mM in PBS for 30 min, followed by PBS washes (2 × 10 min). Permeabilization was carried out using a solution of 0.1% Triton X-100 and 20 mM glycine in PBS for 10 min, followed by two additional PBS washes. Blocking was performed with 1% BSA and 20 mM glycine in PBS for 10 min. […] For the fluorescence lecture, 5 µL of Fluoromount mounting medium was applied to the slide, and the coverslip containing the cells was inverted onto the medium. Slides were allowed to be dry-protected from light, and cells were visualized using a Leica DMi8 fluorescence confocal microscope. […]

CCN(CC)c1ccc2c(-c3ccccc3C(=O)N[C@@H](CCCNC(=N)N)C(=O)N[C@@H](Cc3c[nH]c4ccccc34)C(=O)N[C@@H](CCC(N)=O)C(=O)N[C@@H](Cc3c[nH]c4ccccc34)C(=O)N[C@@H](CCCNC(=N)N)C(=O)N[C@@H](Cc3c[nH]c4ccccc34)C(=O)N[C@@H](CCC(N)=O)C(=O)N[C@@H](Cc3c[nH]c4ccccc34)C(=O)N[C@@H](CCCNC(=N)N)C(N)=O)c3ccc(=[N+](CC)CC)cc-3oc2c1 [RhB-1, RhB-RWQWRWQWR] (RhodamineB-RWQWRWQWR-NH2)
Minimal bactericidal concentration (MBC) [1]: > 105 µM
Minimal inhibitory concentration (MIC) [1]: > 105 µM
Minimal bactericidal concentration (MBC) [2]: 52 µM
Minimal inhibitory concentration (MIC) [2]: 52 µM
Minimal bactericidal concentration (MBC) [3]: > 105 µM
Minimal inhibitory concentration (MIC) [3]: > 105 µM
Minimal bactericidal concentration (MBC) [4]: > 105 µM
Minimal inhibitory concentration (MIC) [4]: > 105 µM
Minimal bactericidal concentration (MBC) [5]: 52 µM
Minimal inhibitory concentration (MIC) [5]: 26 µM
cell population remaining [6]: 8%
cellular localization [7]: internalized and distributed in the cytoplasm
